Assay [1] addresses T1, Recombinant (1-346) HPK1 (h) (Homo sapiens, UniProt Q92918).
T1 construct: Recombinant (1-346) HPK1 (h) is incubated with 8 mM MOPS pH 7.0
T1 sequence (Q92918 1-346): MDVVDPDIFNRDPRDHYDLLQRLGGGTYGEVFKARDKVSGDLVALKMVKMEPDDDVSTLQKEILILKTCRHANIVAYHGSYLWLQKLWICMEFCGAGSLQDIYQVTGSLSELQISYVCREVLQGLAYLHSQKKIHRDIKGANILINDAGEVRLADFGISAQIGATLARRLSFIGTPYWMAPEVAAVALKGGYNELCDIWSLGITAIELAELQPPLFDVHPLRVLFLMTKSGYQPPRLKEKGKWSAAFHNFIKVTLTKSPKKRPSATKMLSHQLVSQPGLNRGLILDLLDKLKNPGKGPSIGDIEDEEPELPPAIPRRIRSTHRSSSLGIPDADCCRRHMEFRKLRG
Nature of the assay: HPK1 human STE kinase enzymatic radiometric assay. It counts as biochemical. The following applies: read-out: HPK1 IC50 nM Range. The gist of the method:
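Compounds in 3-fold, 9-point serial dilution; kinase (residues 1-346) phosphorylates myelin basic protein (0.33 mg/mL) using [gamma-33P]-ATP at pH 7.0 (MOPS, EDTA, Mg acetate) for 40 min, room temperature. Acid-quenched mixture filtered onto P30 mats; incorporated radioactivity read by scintillation counting.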

Another assay addresses Lck (h) (Homo sapiens, UniProt P06239). Nature of the assay: Lck human STE kinase enzymatic radiometric assay. The following applies: read-out: Lck IC50 nM Range. It counts as biochemical.

Some results are limits rather than exact numbers.

Sequence of Lck (h) (P06239 whole entry): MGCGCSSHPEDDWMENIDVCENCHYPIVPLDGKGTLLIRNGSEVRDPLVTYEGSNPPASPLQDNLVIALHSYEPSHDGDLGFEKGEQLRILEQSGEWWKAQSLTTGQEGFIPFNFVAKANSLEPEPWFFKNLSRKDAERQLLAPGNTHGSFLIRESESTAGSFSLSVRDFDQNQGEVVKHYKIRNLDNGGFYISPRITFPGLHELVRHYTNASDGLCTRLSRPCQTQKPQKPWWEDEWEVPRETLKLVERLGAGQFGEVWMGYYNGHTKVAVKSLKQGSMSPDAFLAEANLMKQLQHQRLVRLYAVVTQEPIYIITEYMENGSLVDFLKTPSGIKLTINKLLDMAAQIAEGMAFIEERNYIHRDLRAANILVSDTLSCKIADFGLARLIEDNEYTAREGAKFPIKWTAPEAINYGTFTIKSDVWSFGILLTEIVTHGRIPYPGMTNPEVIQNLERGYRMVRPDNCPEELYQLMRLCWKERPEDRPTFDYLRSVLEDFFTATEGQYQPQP

The IC50 is the concentration that gives 50% inhibition. As for `CN(C)Cc1cc(-c2nc(-c3ccc4c(=O)[nH]cc(F)c4c3)c(N)nc2F)ccc1C1CCOCC1` [Example I-42, 6-(3-amino-6-(3-((dimethylamino)methyl)-4-(tetrahydro-2H-pyran-4-yl)phenyl)-5-fluoropyrazin-2-yl)-4-fluoroisoquinolin-1(2H)-one], the figures for the 50% inhibitory concentration (IC50) (in assay [1]; at Lck (h)) were 0.1 to 10 nM and more than 1000 nM, respectively.

Consider `CC(C)N1CCN(c2ccc(-c3nc(-c4cc5c(cc4F)C(=O)NCC5)c(N)nc3F)cc2)CC1` [Example I-2, 6-(3-amino-5-fluoro-6-(4-(4-isopropylpiperazin-1-yl)phenyl)pyrazin-2-yl)-7-fluoro-3,4-dihydroisoquinolin-1(2H)-one], for which the values for the IC50 (in assay [1]; on Lck (h)) were 0.1 to 10 nM and more than 1000 nM, respectively.

As for `Cc1nc2cc(-c3nc(-c4ccc(C5CCOCC5)c(CN(C)C)c4)c(F)nc3N)cc(F)c2c(=O)[nH]1` [Example I-91, 7-(3-amino-6-(3-((dimethylamino)methyl)-4-(tetrahydro-2H-pyran-4-yl)phenyl)-5-fluoropyrazin-2-yl)-5-fluoro-2-methylquinazolin-4(3H)-one], the half-inhibitory concentration (IC50) in assay [1] is 0.1 to 10 nM; on Lck (h) it was more than 1000 nM.

Turning to `COC1CCN(Cc2cc(-c3nc(-c4ccc5c(c4)CCNC5=O)c(N)nc3F)ccc2N2CCOCC2)C1` (centres unmarked) [Example I-133, 6-(3-amino-5-fluoro-6-(3-((3-methoxypyrrolidin-1-yl)methyl)-4-morpholinophenyl)pyrazin-2-yl)-3,4-dihydroisoquinolin-1(2H)-one], the IC50 was 0.1 to 10 nM in assay [1] and more than 1000 nM on Lck (h).

`CCN1CCN(c2ccc(-c3nc(-c4ccc5c(=O)[nH]ccc5c4)c(N)nc3F)cc2)CC1` [Example I-32, 6-(3-amino-6-(4-(4-ethylpiperazin-1-yl)phenyl)-5-fluoropyrazin-2-yl)isoquinolin-1(2H)-one]: the IC50 was 0.1 to 10 nM in assay [1] and more than 1000 nM on Lck (h).

Regarding `CC(C)N1CCN(c2ccc(-c3nc(-c4cc5cc[nH]c(=O)c5cc4F)c(N)nc3F)cc2)CC1` [Example I-22, 6-(3-amino-5-fluoro-6-(4-(4-isopropylpiperazin-1-yl)phenyl)pyrazin-2-yl)-7-fluoroisoquinolin-1(2H)-one], the IC50 in assay [1] lay within 0.1 to 10 nM; on Lck (h), 101 to 1000 nM.

With `CN1C[C@@H]2C[C@]2(c2ccc(-c3nc(-c4cc5c(cc4F)C(=O)NCC5)c(N)nc3F)cc2)C1` [Example I-5, 6-(3-amino-5-fluoro-6-(4-((1S,5R)-3-methyl-3-azabicyclo[3.1.0]hexan-1-yl)phenyl)pyrazin-2-yl)-7-fluoro-3,4-dihydroisoquinolin-1(2H)-one], the IC50 was 0.1 to 10 nM in assay [1] and more than 1000 nM at Lck (h).

Take `CC(C)S(=O)(=O)c1ccc(-c2nc(-c3ccc4c(=O)[nH]cc(F)c4c3)c(N)nc2F)cc1CN(C)C` [Example I-293, 6-(3-amino-6-(3-((dimethylamino)methyl)-4-(isopropylsulfonyl)phenyl)-5-fluoropyrazin-2-yl)-4-fluoroisoquinolin-1(2H)-one]: the IC50 in assay [1] was 11 to 100 nM; at Lck (h), more than 1000 nM.

As for `Cc1nc2cc(-c3nc(-c4ccc(N5CCN(C(C)C)CC5)cc4)c(F)nc3N)ccc2c(=O)[nH]1` [Example I-39, 7-(3-amino-5-fluoro-6-(4-(4-isopropylpiperazin-1-yl)phenyl)pyrazin-2-yl)-2-methylquinazolin-4(3H)-one], the 50% inhibitory concentration (IC50) is 11 to 100 nM in assay [1] and more than 1000 nM at Lck (h).

For the compound `CN(C)Cc1cc(-c2nc(-c3ccc4c(c3)CCNC4=O)c(N)nc2F)ccc1N1CCOCC1` [Example I-64, 6-(3-amino-6-(3-((dimethylamino)methyl)-4-morpholinophenyl)-5-fluoropyrazin-2-yl)-3,4-dihydroisoquinolin-1(2H)-one], the figures for the IC50 (in assay [1]; on Lck (h)) were 0.1 to 10 nM and more than 1000 nM, respectively.

Turning to `Nc1nc(F)c(-c2ccc(C3CCOCC3)c(CN3CCC3)c2)nc1-c1cc(F)c2c(c1)CCNC2=O` [Example I-171, 6-(3-amino-6-(3-(azetidin-1-ylmethyl)-4-(tetrahydro-2H-pyran-4-yl)phenyl)-5-fluoropyrazin-2-yl)-8-fluoro-3,4-dihydroisoquinolin-1(2H)-one], the IC50 is 0.1 to 10 nM in assay [1] and 101 to 1000 nM on Lck (h).

Turning to `CN(C)Cc1cc(-c2nc(-c3ccc4c(=O)[nH]cc(Cl)c4c3)c(N)nc2F)ccc1C1CCOCC1` [Example I-154, 6-(3-amino-6-(3-((dimethylamino)methyl)-4-(tetrahydro-2H-pyran-4-yl)phenyl)-5-fluoropyrazin-2-yl)-4-chloroisoquinolin-1(2H)-one], the IC50 was 0.1 to 10 nM in assay [1] and more than 1000 nM at Lck (h).

Take `CN(C)Cc1cc(-c2nc(-c3cc(F)c4c(c3)CCNC4=O)c(N)nc2F)ccc1C1CCOCC1` [Example I-83, 6-(3-amino-6-(3-((dimethylamino)methyl)-4-(tetrahydro-2H-pyran-4-yl)phenyl)-5-fluoropyrazin-2-yl)-8-fluoro-3,4-dihydroisoquinolin-1(2H)-one]: the values for the IC50 (in assay [1]; at Lck (h)) were 0.1 to 10 nM and more than 1000 nM, respectively.

With `CC(C)N1C[C@H]2C[C@@]2(c2ccc(-c3nc(-c4cc5c(cc4F)C(=O)NCC5)c(N)nc3F)cc2)C1` [Example I-4, 6-(3-amino-5-fluoro-6-(4-((1R,5S)-3-isopropyl-3-azabicyclo[3.1.0]hexan-1-yl)phenyl)pyrazin-2-yl)-7-fluoro-3,4-dihydroisoquinolin-1(2H)-one], the values for the IC50 (in assay [1]; at Lck (h)) were 0.1 to 10 nM and more than 1000 nM, respectively.

As to `Nc1nc(F)c(-c2ccc(N3CCN(CC4CC4)CC3)cc2)nc1-c1cc(F)c2c(=O)[nH]ccc2c1` [Example I-24, 6-(3-amino-6-(4-(4-(cyclopropylmethyl)piperazin-1-yl)phenyl)-5-fluoropyrazin-2-yl)-8-fluoroisoquinolin-1(2H)-one], the IC50 is 0.1 to 10 nM in assay [1] and 101 to 1000 nM on Lck (h).

With `Nc1nc(F)c(-c2ccc(N3CCOCC3)c(CN3CCCC3)c2)nc1-c1ccc2c(c1)CCNC2=O` [Example I-113, 6-(3-amino-5-fluoro-6-(4-morpholino-3-(pyrrolidin-1-ylmethyl)phenyl)pyrazin-2-yl)-3,4-dihydroisoquinolin-1(2H)-one], the half-inhibitory concentration (IC50) was 0.1 to 10 nM in assay [1] and more than 1000 nM at Lck (h).

`CC(C)N1CCN(c2ccc(-c3nc(-c4cc(F)c5c(=O)[nH]cc(F)c5c4)c(N)nc3F)cc2)CC1` [Example I-85, 6-(3-amino-5-fluoro-6-(4-(4-isopropylpiperazin-1-yl)phenyl)pyrazin-2-yl)-4,8-difluoroisoquinolin-1(2H)-one]: the half-maximal inhibitory concentration (IC50) was 0.1 to 10 nM in assay [1] and more than 1000 nM at Lck (h).

On to `Nc1nc(F)c(-c2ccc(N3CCN(CCC4CC4)CC3)cc2)nc1-c1cc(F)c2c(c1)CCNC2=O` [Example I-26, 6-(3-amino-6-(4-(4-(2-cyclopropylethyl)piperazin-1-yl)phenyl)-5-fluoropyrazin-2-yl)-8-fluoro-3,4-dihydroisoquinolin-1(2H)-one], for which the IC50 was 0.1 to 10 nM in assay [1] and more than 1000 nM on Lck (h).

For the compound `CC(C)N1CC=C(c2ccc(-c3nc(-c4cc5c(cc4F)C(=O)NCC5)c(N)nc3F)cc2)CC1` [Example I-9, 6-(3-amino-5-fluoro-6-(4-(1-isopropyl-1,2,3,6-tetrahydropyridin-4-yl)phenyl)pyrazin-2-yl)-7-fluoro-3,4-dihydroisoquinolin-1(2H)-one], the IC50 fell in the range of 0.1 to 10 nM in assay [1] and 101 to 1000 nM at Lck (h).

For the origin of these results see patent US20240425479A1, “HALO-SUBSTITUTED AMINO AZA-HETEROARYL COMPOUNDS AS INHIBITORS OF THE HAEMATOPOIETIC PROGENITOR KINASE 1 (HPK1)” (priority 2021, published 2024).
